Test results as given in US20240011094A1, “METHODS FOR DIAGNOSIS AND TREATING POLYCYSTIC OVARY SYNDROME (PCOS)” (INSTITUT NATIONAL DE LA SANTÉ ET DE LA RECHERCHE MÉDICALE, priority 2020, published 2024).
No end group written: not given here.

Experiments:
ovaries of PAMH F3 mice = assay: RT-qPCR gene expression in ovaries of SAM-treated PAMH F3 mice; format: in vivo, mouse
Protocol: Ovaries tissues were harvest from control F1 and PAMH F3 female mice, frozen ovaries were homogenized using 1 ml of Trizol (ThermoFisher Scientific, Cat #15596026) with a tissue homogenizer and total RNA was isolated using RNeasy Lipid Tissue Mini Kit (Qiagen; Cat #74804) following the manufacturer's instructions. For gene expression analyses, cDNA was synthetized from 1000 ng of total RNA using the High capacity RNA-to-cDNA kit (Applied Biosystems, Cat #4387406) using the manufacturer's recommended cycling conditions. Real-time PCR was carried out on Applied Biosystems 7900HT Fast Real-Time PCR system using exon-boundary-specific TaqMan® Gene Expression Assays (Applied Biosystems) (Table S4). Data were analyzed by using the 2^−ΔΔCT method (Livak and Schmittgen, 2001) and normalized to housekeeping genes Beta-actin (ActB) levels. Values are expressed relative to control values, as appropriate, set at 1.
(§1) PAMH F3 female offspring (6 months-old) were cycled for 10 days before treatment, and for additional 15 days during the treatment. CNTR female offspring (6 months-old) were not treated and were cycled for 25 days. Vaginal cytology was analyzed under an inverted microscope to record the specific stage of the estrous cycle. PAMH F3 offspring were injected intraperitoneally (i.p.) daily for 15 days with 200 μL of a solution containing 0.01M phosphate buffered saline (PBS, pH 7.4) or with SAM (50 mg/Kg/day; New England Biolegends, Cat. B9003S). This concentration was chosen based on previous in vivo pharmacological studies using the same drug (Li et al., 2012). Tail-blood samples were collected for LH and T measurements at dioestrus before the beginning of the treatments, at day 10, and at the end of the treatment, at day 25.

[1] = test system: PAMH F3 female offspring (PCOS-like mice); assay: SAM treatment of PAMH F3 female mice: estrous cyclicity, LH, T, body composition, pancreatic islets; format: in vivo, mouse
Protocol: Control F1 and PAMH F1-F3 female offspring were weaned at post-natal day P21 and checked for vaginal opening (VO) and time of first estrus. Anogenital distance (AGD) and body mass (grams, g) were measured at different ages during post-natal development (P30, 35, 40, 50 and 60). At VO and in adulthood (P60), vaginal smears were performed daily for 16 consecutive days (4-cycles) for analysis of age of first estrus and estrous cyclicity. Vaginal cytology was analyzed under an inverted microscope to identify the specific stage of the estrous cycle. The reproductive competency of these animals was determined by pairing the following mice: CNTR F1 females mated with CNTR F1 males, CNTR F1 males mated with PAMH F1-F3 females, PAMH F1-F3 females mated with PAMH F1-F3 males, for a period of 3 months. Unexperienced males and primiparous females, selected from at least three different litters, were used for the 90-days mating protocol test. Number of pups/litter (number of pups), fertility index (number of litters per females over 3 months), and time to first litter (number of days to first litter after pairing) were quantified per treatment and pairing.
LH levels were determined by a sandwich ELISA, as described previously (Steyn et al., 2013), using the mouse LH-RP reference provided by A. F. Parlow (National Hormone and Pituitary Program, Torrance, CA). Plasma T levels were analyzed using a commercial ELISA (Demeditec Diagnostics, GmnH, DEV9911) (Moore et al., 2015) according to the manufacturers' instructions.
Whole body fat, fluids, and lean tissue mass were determined by Nuclear Magnetic Resonance (MiniSpec mq 7.5, RMN Analyser, Bruker) according to the manufacturer's recommendations.
as §1

NgTET1 [2] = conditions: cited from earlier work
NgTET1 [3] = target: T1, NgTET1 (Naegleria gruberi, UniProt D2W6T1); conditions: cited from earlier work
T1 sequence (D2W6T1 1-321): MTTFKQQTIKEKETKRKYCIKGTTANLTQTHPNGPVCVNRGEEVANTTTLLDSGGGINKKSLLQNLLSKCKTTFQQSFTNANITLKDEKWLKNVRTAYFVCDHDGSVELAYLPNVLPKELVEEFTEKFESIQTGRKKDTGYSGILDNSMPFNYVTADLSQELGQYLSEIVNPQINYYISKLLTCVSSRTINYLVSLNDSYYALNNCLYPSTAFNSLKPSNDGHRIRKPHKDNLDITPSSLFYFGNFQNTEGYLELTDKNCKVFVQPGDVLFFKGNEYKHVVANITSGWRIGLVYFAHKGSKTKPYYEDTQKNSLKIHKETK

mTET1 = mTET1 (Mus musculus, UniProt Q3URK3); conditions: cited from earlier work
Chain of mTET1 (Q3URK3 whole entry, the tested form may be a part): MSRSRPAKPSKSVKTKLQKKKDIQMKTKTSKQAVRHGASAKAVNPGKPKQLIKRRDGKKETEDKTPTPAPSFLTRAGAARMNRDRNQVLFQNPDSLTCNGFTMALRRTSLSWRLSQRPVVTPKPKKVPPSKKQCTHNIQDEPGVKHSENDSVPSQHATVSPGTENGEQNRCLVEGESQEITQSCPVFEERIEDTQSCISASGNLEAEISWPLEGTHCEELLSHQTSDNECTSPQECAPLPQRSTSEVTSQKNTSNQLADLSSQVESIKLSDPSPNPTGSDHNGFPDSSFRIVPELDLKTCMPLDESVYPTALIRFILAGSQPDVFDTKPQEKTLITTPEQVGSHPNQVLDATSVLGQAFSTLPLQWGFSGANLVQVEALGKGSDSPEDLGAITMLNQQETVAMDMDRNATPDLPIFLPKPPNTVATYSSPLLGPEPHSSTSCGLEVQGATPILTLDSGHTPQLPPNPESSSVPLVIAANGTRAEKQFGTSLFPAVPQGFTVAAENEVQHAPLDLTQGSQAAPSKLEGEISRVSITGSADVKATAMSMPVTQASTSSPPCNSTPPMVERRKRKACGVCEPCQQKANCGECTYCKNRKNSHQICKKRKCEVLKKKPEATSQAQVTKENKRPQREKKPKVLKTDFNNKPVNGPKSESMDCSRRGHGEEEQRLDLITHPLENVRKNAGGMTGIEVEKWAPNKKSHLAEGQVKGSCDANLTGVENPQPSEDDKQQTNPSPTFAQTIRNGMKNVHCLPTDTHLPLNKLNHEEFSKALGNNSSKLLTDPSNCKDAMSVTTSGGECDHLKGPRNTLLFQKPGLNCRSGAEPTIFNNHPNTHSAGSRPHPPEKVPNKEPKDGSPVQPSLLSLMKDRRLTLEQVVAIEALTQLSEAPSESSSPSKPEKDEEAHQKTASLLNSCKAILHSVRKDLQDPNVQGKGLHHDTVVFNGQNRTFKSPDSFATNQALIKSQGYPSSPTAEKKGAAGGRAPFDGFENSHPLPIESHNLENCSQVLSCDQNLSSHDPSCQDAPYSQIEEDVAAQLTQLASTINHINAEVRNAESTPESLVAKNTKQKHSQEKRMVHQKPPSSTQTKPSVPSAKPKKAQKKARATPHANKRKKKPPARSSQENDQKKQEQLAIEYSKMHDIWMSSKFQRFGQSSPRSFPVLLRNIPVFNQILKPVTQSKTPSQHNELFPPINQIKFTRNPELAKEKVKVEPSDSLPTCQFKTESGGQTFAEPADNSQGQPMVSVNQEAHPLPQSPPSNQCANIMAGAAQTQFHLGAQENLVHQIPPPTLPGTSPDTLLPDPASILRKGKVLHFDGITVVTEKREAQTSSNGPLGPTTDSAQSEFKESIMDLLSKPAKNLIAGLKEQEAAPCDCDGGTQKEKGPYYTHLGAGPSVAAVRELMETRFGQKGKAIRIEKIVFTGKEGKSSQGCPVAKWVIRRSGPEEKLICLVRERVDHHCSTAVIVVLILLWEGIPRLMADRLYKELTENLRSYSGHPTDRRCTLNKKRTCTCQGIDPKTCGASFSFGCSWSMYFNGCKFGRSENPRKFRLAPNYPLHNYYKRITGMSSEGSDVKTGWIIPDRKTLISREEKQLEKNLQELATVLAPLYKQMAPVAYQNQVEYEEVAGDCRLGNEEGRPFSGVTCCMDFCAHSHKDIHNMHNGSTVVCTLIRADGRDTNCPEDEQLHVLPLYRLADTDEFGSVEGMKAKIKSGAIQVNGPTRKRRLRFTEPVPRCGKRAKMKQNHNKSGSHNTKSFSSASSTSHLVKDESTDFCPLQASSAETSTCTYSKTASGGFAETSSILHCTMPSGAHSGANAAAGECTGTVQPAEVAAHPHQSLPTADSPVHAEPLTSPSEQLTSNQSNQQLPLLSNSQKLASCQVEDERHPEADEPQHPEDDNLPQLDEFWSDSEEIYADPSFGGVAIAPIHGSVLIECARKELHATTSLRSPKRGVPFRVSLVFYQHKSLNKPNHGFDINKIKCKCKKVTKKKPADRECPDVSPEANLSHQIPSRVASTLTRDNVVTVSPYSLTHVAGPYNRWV

[4] = target: T2, TET1 catalytic domain (TET1CD) (Homo sapiens, UniProt Q8NFU7); conditions: cited from earlier work
T2 sequence (Q8NFU7 1418-2136 limits assumed): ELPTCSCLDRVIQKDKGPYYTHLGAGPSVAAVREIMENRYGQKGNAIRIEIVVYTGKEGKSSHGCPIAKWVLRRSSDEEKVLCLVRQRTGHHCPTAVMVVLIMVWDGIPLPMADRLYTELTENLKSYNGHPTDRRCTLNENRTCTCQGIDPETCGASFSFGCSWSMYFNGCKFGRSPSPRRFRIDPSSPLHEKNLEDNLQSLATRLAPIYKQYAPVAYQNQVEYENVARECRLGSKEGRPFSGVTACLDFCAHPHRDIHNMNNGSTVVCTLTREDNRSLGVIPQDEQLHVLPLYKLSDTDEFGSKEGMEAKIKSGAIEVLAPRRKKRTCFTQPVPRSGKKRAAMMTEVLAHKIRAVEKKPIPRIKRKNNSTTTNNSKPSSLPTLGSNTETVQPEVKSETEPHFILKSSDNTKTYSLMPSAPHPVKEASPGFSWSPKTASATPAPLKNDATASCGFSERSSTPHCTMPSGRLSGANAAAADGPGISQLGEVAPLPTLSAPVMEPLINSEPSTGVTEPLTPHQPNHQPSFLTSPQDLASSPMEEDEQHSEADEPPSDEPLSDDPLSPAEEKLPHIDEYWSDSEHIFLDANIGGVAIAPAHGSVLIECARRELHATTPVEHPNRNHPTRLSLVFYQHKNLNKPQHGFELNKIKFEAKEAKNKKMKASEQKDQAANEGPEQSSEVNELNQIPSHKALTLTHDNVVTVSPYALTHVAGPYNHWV

[5] = PAMH F3 females, SAM 50 mg/kg/day i.p. for 15 days
[6] = PAMH F3 females, dioestrus, day 25, SAM 50 mg/kg/day i.p. for 15 days

Q: Which “Hdc ovarian gene expression” value (ovaries of PAMH F3 mice) does the source give for `C[S@@+](CC[C@H](N)C(=O)[O-])C[C@H]1O[C@@H](n2cnc3c(N)ncnc32)[C@H](O)[C@@H]1O` (stereo in doubt) [SAM, S-Adenosyl methionine] here?
A: Its value is “rescue”.

Q: What about the “NF-κB mRNA in ovaries” value (ovaries of PAMH F3 mice) of the same compound?
A: The value was “normalized”.

Q: What about the “Ptgs2 mRNA in ovaries” value (ovaries of PAMH F3 mice) of the same compound?
A: Its value is “normalized”.

Q: What about the “Sorbs2 expression in ovaries” value (ovaries of PAMH F3 mice) of the same compound?
A: Its value is “remained unaltered”.

Q: What about the “Uhrf1 expression in ovaries” value (ovaries of PAMH F3 mice) of the same compound?
A: Its value is “restored”.

Q: What about the “Tet1 transcript levels in ovarian tissues” value (ovaries of PAMH F3 mice; compared with controls) of the same compound?
A: The value was “unaltered”.

Q: What about the “percentage of completed estrous cycles” value ([1]; PAMH F3 females, 6 months-old, SAM 50 mg/kg/day i.p. for 15 days) of the same compound?
A: Its value is 75%.

Q: What about the “body mass composition, % of fat mass” value [1, 5] of the same compound?
A: The value was “normalized”.

Q: And the “body mass composition, % of lean mass” value [1, 5]?
A: Its value is “normalized”.

Q: What about the “size of the islet of Langerhans” value [1, 5] of the same compound?
A: Its value is “normalized”.

Q: What about the “time spent in each estrous cycle stage (ovulation)” value [1, 5] of the same compound?
A: Its value is “restored normal ovulation”.

Q: What about the LH concentrations [1, 6] of the same compound?
A: Its LH concentrations is “normalized”.

Q: What about the T concentrations [1, 6] of the same compound?
A: The T concentrations was “normalized”.

Q: What about the “major PCOS-like neuroendocrine, reproductive and metabolic traits” value ([1]; PAMH F3 mice, postnatal SAM treatment) of the same compound?
A: Its value is “rescue”.

Q: For `O=C(O)CCC(=O)C(=O)O` [Molecule 3, 2-oxoglutraric acid], which IC50 (NgTET1 [2]) is on record?
A: Its IC50 is 250 µM.

Q: Which IC50 (NgTET1 [2]) does the source give for `O=C(O)CNC(=O)C(=O)O` [Molecule 30, N-oxalylglycine] here?
A: The IC50 was 49 µM.

Q: Which Kd (NgTET1 [3]) does the source give for `O=C(O)/C=C/C(=O)N(O)CCCCCCCCNC(=S)Nc1ccc(-c2c3ccc(=O)cc-3oc3cc(O)ccc23)c(C(=O)O)c1` [Molecule 33] here?
A: The Kd was 0.25 µM.

Q: With `O=C(O)c1ccnc(C(=O)O)c1` [Molecule 35, 2,4-pyridinedicarboxylic acid] as the compound, how does the IC50 (NgTET1 [2]) read?
A: The IC50 was 27 µM.

Q: Which IC50 (mTET1) does the source give for Fumarate [Molecule 32] here?
A: The IC50 was 390 µM.

Q: Which IC50 (NgTET1 [2]) does the source give for “cyclic peptide TET1 inhibitor, SEQ ID 5: (Ac)YYRVKTYYQITYVYLSC [Molecule 38]” here?
A: Its IC50 is 1.44 µM.

Q: Which IC50 (NgTET1 [2]) does the source give for “cyclic peptide TET1 inhibitor, SEQ ID No 3: (Ac)YLIYAYYTWWEHSC (Ac-YLIYAYYTWWEHSC; not fully specified (bridges)) [Molecule 36]” here?
A: Its IC50 is 1.48 µM.

Q: What about the “selectivity, inhibition of TET1CD over TET2CD” value [4] of the same compound?
A: The value was “tenfold”.

Q: With “cyclic peptide TET1 inhibitor, SEQ ID No 4: (Ac)YWYLPSYRVPWFC [Molecule 37]” as the compound, how does the IC50 (NgTET1 [2]) read?
A: Its IC50 is 1.13 µM.
